The record followed here is PubChem BioAssay (NCI).

Some test systems named below: BT-549 breast; HOP-92 NSCLC; U251 CNS; NCI-H522 lung; HT29 colon; RPMI-8226 leukemia; OVCAR-5 ovarian; UO-31 renal; T-47D breast; ACHN renal.
Common to all, as to experiment: NCI-60 cell line screen, 48 h

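Tested at 5 concentrations; 48 h exposure; 96-well plates; endpoints linearly interpolated, else capped at highest concentration. TGI: total growth inhibition.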 A value given as a limit tells only on which side of the number the result lay.

Take `COC(=O)C(/C(=N/NC(=O)c1ccncc1)C(=O)Nc1ccccc1OC)c1nc2ccc(Cl)cc2[nH]c1=O` (stereo not given): the TGI with BT-549 breast, in the assay with HOP-92 NSCLC, with U251 CNS, with NCI-H522 lung, in the assay on HT29 colon and with RPMI-8226 leukemia was more than 100 µM each time. In addition, the TGI in the assay with OVCAR-5 ovarian, in the assay with UO-31 renal, with T-47D breast and in the assay on ACHN renal was more than 100 µM in each case.

For the molecule `O=C(N/N=C\c1cccc2ccccc12)Nc1ccc([N+](=O)[O-])cc1`, the TGI was more than 66.4 µM with BT-549 breast; 26.2 µM in the assay with HOP-92 NSCLC; more than 100 µM in the assay with U251 CNS; more than 53.9 µM with NCI-H522 lung; more than 100 µM in the assay with HT29 colon; more than 100 µM in the assay with RPMI-8226 leukemia. Further, the TGI in the assay on OVCAR-5 ovarian is more than 71 µM; in the assay on UO-31 renal it was more than 61.8 µM; with T-47D breast it was more than 41.4 µM; with ACHN renal, more than 72.7 µM.

As for `Cc1cc2ccccc2n1CC(=O)NCC(C)C`, the TGI in the assay on BT-549 breast, with HOP-92 NSCLC, with U251 CNS, in the assay with NCI-H522 lung, with HT29 colon and in the assay on RPMI-8226 leukemia was more than 100 µM throughout. Besides, the TGI in the assay on OVCAR-5 ovarian, with UO-31 renal, in the assay on T-47D breast and with ACHN renal was more than 100 µM each time.

For `Cc1ccc2nc3c(C)c(Cl)c(=O)cc-3sc2c1`, the TGI in the assay with BT-549 breast was more than 100 µM; in the assay with HOP-92 NSCLC it was more than 92.3 µM; in the assay on U251 CNS, more than 91.5 µM; in the assay on NCI-H522 lung it was more than 56.1 µM; with HT29 colon, more than 100 µM; in the assay with RPMI-8226 leukemia it was more than 52.3 µM. In addition, the TGI in the assay on OVCAR-5 ovarian was more than 95.8 µM; in the assay with UO-31 renal, 67.4 µM; with T-47D breast, more than 100 µM; in the assay with ACHN renal, 87.3 µM.

As for `c1ccc(CCN2CCCCCC2)nc1`, the TGI in the assay on BT-549 breast, in the assay on HOP-92 NSCLC, in the assay with U251 CNS, in the assay on NCI-H522 lung, with HT29 colon and with RPMI-8226 leukemia was more than 100 µM throughout. Besides, the TGI in the assay with OVCAR-5 ovarian, in the assay with UO-31 renal, in the assay with T-47D breast and with ACHN renal was more than 100 µM throughout.

With `O=C1NC(=S)N/C1=C/c1ccccc1O`, the TGI with BT-549 breast, with HOP-92 NSCLC, with U251 CNS, in the assay on NCI-H522 lung, in the assay on HT29 colon and in the assay on RPMI-8226 leukemia was more than 100 µM in each case. Also, the TGI with OVCAR-5 ovarian, in the assay with UO-31 renal, in the assay on T-47D breast and in the assay with ACHN renal was more than 100 µM in each case.

In the case of `CN(CCc1ccc(Cl)c(Cl)c1)[C@H]1CCCC[C@H]1N1CCCC1`, the TGI in the assay on BT-549 breast, in the assay with HOP-92 NSCLC, with U251 CNS, with NCI-H522 lung, in the assay with HT29 colon and with RPMI-8226 leukemia was more than 100 µM throughout. The TGI in the assay with OVCAR-5 ovarian, in the assay on UO-31 renal, with T-47D breast and in the assay on ACHN renal was more than 100 µM each time.

`CC(=O)N(CN1C(=O)CCC1C(=O)O)c1ccccc1` (stereo not given): the TGI with BT-549 breast, with HOP-92 NSCLC, with U251 CNS, with NCI-H522 lung, with HT29 colon and in the assay on RPMI-8226 leukemia was more than 100 µM throughout. Also, the TGI with OVCAR-5 ovarian, with UO-31 renal, with T-47D breast and with ACHN renal was more than 100 µM each time.

`Cc1cc(Cc2c(F)c(F)c(Cc3cc(C)no3)c(F)c2F)on1`: the TGI in the assay with BT-549 breast, with HOP-92 NSCLC, in the assay on U251 CNS, in the assay on NCI-H522 lung, in the assay with HT29 colon and in the assay on RPMI-8226 leukemia was more than 100 µM throughout. Further, the TGI with OVCAR-5 ovarian, in the assay with UO-31 renal, in the assay with T-47D breast and in the assay with ACHN renal was more than 100 µM in each case.

For `CC(=O)O[C@H]1C#C/C=C\C#CC[C@@H]2C(=O)N(C(=O)OC(C)(C)C)[C@@H]12`, the TGI in the assay with BT-549 breast was more than 81.4 µM; in the assay on HOP-92 NSCLC, 96.8 µM; in the assay with U251 CNS, more than 78.9 µM; in the assay on NCI-H522 lung, 47.8 µM; with HT29 colon, more than 100 µM; in the assay with RPMI-8226 leukemia it was more than 75.8 µM. Further, the TGI in the assay with OVCAR-5 ovarian is more than 100 µM; in the assay with UO-31 renal, 31.2 µM; in the assay with T-47D breast, 88.6 µM; in the assay with ACHN renal it was 28.8 µM.

In the case of `COc1ccc(/C=C/c2cc(O)cc(OC)c2)cc1`, the TGI in the assay with BT-549 breast was more than 100 µM; in the assay on HOP-92 NSCLC it was more than 100 µM; in the assay with U251 CNS, more than 100 µM; in the assay with NCI-H522 lung it was more than 100 µM; with HT29 colon, more than 100 µM; with RPMI-8226 leukemia, 78.7 µM. Further, the TGI with OVCAR-5 ovarian, with UO-31 renal, in the assay on T-47D breast and in the assay with ACHN renal was more than 100 µM each time.

Regarding `COC(=O)[C@H](C)N1C(=O)N[C@@H](C(C)C)C1=O`, the TGI in the assay with BT-549 breast, with HOP-92 NSCLC, with U251 CNS, in the assay on NCI-H522 lung, with HT29 colon and in the assay on RPMI-8226 leukemia was more than 100 µM in each case. For the same molecule, the TGI in the assay on OVCAR-5 ovarian, with UO-31 renal, in the assay with T-47D breast and with ACHN renal was more than 100 µM each time.

Turning to `O=C(/C=C/c1ccc(-c2ccccc2[N+](=O)[O-])o1)NCc1ccc(C(=O)NCCc2ccccc2)cc1`, the TGI with BT-549 breast, with HOP-92 NSCLC, in the assay on U251 CNS, in the assay with NCI-H522 lung, with HT29 colon and with RPMI-8226 leukemia was more than 100 µM throughout. The TGI in the assay with OVCAR-5 ovarian, with UO-31 renal, with T-47D breast and in the assay with ACHN renal was more than 100 µM throughout.
